Measured values reported in US7632814B2, “HYD1 peptides as anti-cancer agents” (University of South Florida, priority 2006, dated 2009).
Where no end group is shown, it is not given here. [ ]: non-standard residue; d: D form.

Assays:
H929 cells [1] = test: Cell adhesion to fibronectin (crystal violet staining); assay type: cell-based; conditions: varying concentrations, 30 minutes pre-incubation, 2 hours adhesion
Experimental: FIGS. 30A and 30B are graphs showing that HYD1 but not the scrambled derivative HYD1S inhibited cell adhesion of both 8226 and H929 cells to FN. Varying concentrations of either HYD1, HYD1S, or a 1:100 dilution of either α4β1 or α5β1 integrin functional blocking antibodies was added to either (FIG. 30A) 8226 cell or (FIG. 30B) H929 cells for 30 minutes prior to adding cells to either FN or BSA coated wells. Cells were allowed to adhere for 2 hours and adherent cells were measured by crystal violet staining at 540 nm. Shown is the mean and standard deviation of a representative experiment performed in quadruplicate. Three independent experiments were performed and similar results were obtained.
Quantification of cell adhesion to fibronectin. Briefly, 8226 or H929 myeloma cells were pre-incubated with varying concentrations of either HYD1 or the scrambled peptide (HYD1S) for 30 minutes prior to allowing cells to attach to FN for two hours. Cell adhesion was detected by crystal violet staining as previously described (Damiano J S et al. Blood, 1999; 93:1658-1667; Hazlehurst L A et al. Oncogene, 2000; 19:4319-4327).

H929 cells [2] = test: Detection of apoptosis, annexin V staining and FACS, suspension culture; assay type: cell-based
Experimental: FIG. 17 is a graph showing that HYD1 induces apoptosis as a single agent in 8226 and H929 cells cultured in suspension. 8226 and H929 cells were either treated with varying concentrations of HYD1 or vehicle control (equal volume sterile double distilled water) for 24 hours and apoptotic cells were detected by FACS analysis of annexin V positive cells. HYD1 specific apoptosis equals cell death due to peptide minus any apoptosis detected in control cells.
200 μM ZVAD-FMK was added to H929 cells for 30 minutes prior to the addition of either 75 μg/ml HYD1S or 15 μM Melphalan. Apoptosis was measured 24 hours after drug treatment by annexin/PI staining and apoptotic cells were detected by FACS analysis. Three independent experiments were performed and shown is a representative experiment.
Detection of Apoptosis. […] Blood, 1999; 93:1658-1667). The assay was performed in triplicate and 3 independent experiments were performed. Caspase 3 and 8 activity was measured at 6 and 24 hrs post peptide treatment per manufactures' instructions (BD Biosciences, San Jose, Calif.). The caspase assays were performed in triplicate and repeated twice.
Myeloma cells were plated at a density of 400,000 cells per ml in a 24 well plate. Cells were treated with the indicated dose of the peptide for 24 hours. Following 24 hrs of peptide exposure, apoptotic cells were detected using Annexin V staining and FACS analysis. Ten thousand events were analyzed by flow cytometry (Becton Dickinson, San Jose, Calif.). Experiments were performed in triplicate and repeated twice. Shown is a representative figure.

8226 cells = test: Lysosensor staining of acidic vesicles, confocal microscopy; assay type: cell-based; conditions: 100 μg/ml, six hours, compared to control cells
Experimental: (§1) Lysosensor green was used to detect acidic compartments and live cell imaging was performed by confocal microscopy. Shown is a representative figure. The experiment was repeated three independent times and similar results were obtained.
(§2) Lysosensor staining. 35 mm glass bottom microwell dishes were incubated with 10 ul Cell-tak (BD biosciences San Jose, Calif.) and 290 ul 0.5M sodium bicarbonate (Sigma) for 30 minutes. The plates were aspirated and 200,000H929 or 8226 cells were plated. Cells were then treated with either water (VC), 100 μg/ml HYD1 or 100 μg/ml HYD1S for 6 hours. After the 6-hour incubation, the plates were aspirated and washed once with warm media. Media containing 1 μM lysosensor DND-189 (Molecular Probes, Carlsbad Calif.) and 20 μM Hoechst 33342 (Molecular Probes) was added and samples were incubated for an additional 30 minutes. Samples were analyzed with a Leica DMI6000 inverted TCS SP5 confocal scanner (Leica Microsystems, Germany). 405 Diode and Argon laser lines were applied to excite the samples and tunable filters were used to minimize the crosstalk between fluorochromes. Gain, offset, and pinhole setting were identical for all samples within the treatment group. Image sections at […] were captured with photomultiplier detectors and maximum projections were prepared with the LAS AF software version 1.6.0 build 1016 (Leica Microsystems, Germany).

H929 cells [3] = test: as above; assay type: cell-based; conditions: 100 μg/ml, six hours, compared to control cells
Experimental: as §1, §2

[4] = test system: phospho Pyk2 in H929 cells; test: Phospho-Pyk2 levels in suspension culture (immunoblot); assay type: cell-based; conditions: H929 cells cultured in suspension
Excerpt: Based upon the observation that HYD1 increased melphalan induced apoptosis in suspension cultures, whether treatment with HYD1 inhibits phosphorylation of a downstream mediator of β1 integrin signaling (Pyk2) in suspension cultures was investigated.

[5] = test system: DUH-H prostate carcinoma cells; conditions: DeRoock et al. 2001; cited from earlier work

## kikmviswkg ([dK][dI][dK][dM][dV][dI][dS][dW][dK]G) [HYD1]
H929 cells [1]
  blocking of adhesion of H929 cells to the extracellular matrix FN: blocks adhesion of 8226 and H929 cells to the extracellular matrix FN in a dose dependent manner
H929 cells [2]; H929 cells, 200 μM ZVAD-FMK 30 minutes prior, apoptosis at 24 hours, annexin/PI
  protection from induced cell death by pan caspase inhibitor ZVAD-FMK: only marginally protected
H929 cells [2]; H929 cells, 6 hours
  annexin V positive cells following 6 hours of treatment: can be detected
H929 cells [2]; H929 cells, suspension culture, single agent, 24 hours
  induction of annexin V positive cells: dose dependent induction of annexin V positive cells
H929 cells [2]; H929 cells, suspension, peptide with melphalan
  melphalan-induced apoptosis in cells cultured in suspension: increased melphalan-induced apoptosis
H929 cells [2]; suspension culture
  sensitivity to HYD1 treatment, H929 compared to 8226 cells: H929 cells are more sensitive
8226 cells
  number and size of acidic vesicles: increase in the number and size of acidic vesicles
H929 cells [3]
  number and size of acidic vesicles: increase in the number and size of acidic vesicles
[4]
  phospho Pyk2 levels: reduces phospho Pyk2 levels
[5]
  inhibition of adhesion to FN, laminin 1, laminin 5 and collagen V: inhibit adhesion
